Results published in PMC2949399, “Gene Expression Signature-Based Screening Identifies New Broadly Effective Influenza A Antivirals” (PLoS ONE, 2010).
Like-named read-outs stand apart in the source and are kept apart here.

Experiments:
in vitro = conditions: human
influenza A viruses = format: cell-based, influenza A virus
[1] = system: A/Lyon/969/09 (H1N1 SOIV)
[2] = system: A/New Caledonia/20/99 (H1N1); assay: microbe, parasite or virus in culture; conditions: Influenza A virus
[3] = system: A/Lyon/969/09 (H1N1 SOIV); assay: microbe, parasite or virus in culture; conditions: Influenza A virus
A/Turkey/582/2006 (H5N1) [4] = assay: microbe, parasite or virus in culture; conditions: Influenza A virus
[5] = system: A/Finch/England/2051/94 (H5N2); assay: microbe, parasite or virus in culture; conditions: Influenza A virus, H5N2, A549, 65 h
[6] = system: A/Chicken/Italy/2076/99 (H7N1); assay: microbe, parasite or virus in culture; conditions: Influenza A virus, H7N1, A549, in Gallus gallus, 65 h
[7] = system: A/New Caledonia/20/99 (H1N1)
[8] = system: A/Finch/England/2051/94 (H5N2)
[9] = system: A/Chicken/Italy/2076/99 (H7N1)
A/Turkey/582/2006 (H5N1) [10] = system: A/Turkey/582/2006 (H5N1)
[11] = H1N1, A549, 65 h, read-out: EC50 H1N1 moi 0.2
[12] = H1N1, A549, 65 h, read-out: EC50 H1N1 moi 2
[13] = H1N1, A549, 65 h, read-out: EC50 SOIV moi 0.2
[14] = H1N1, A549, 65 h, read-out: EC50 SOIV moi 2
[15] = H5N1, A549, 65 h, read-out: EC50 H5N1 moi 0.2
[16] = H5N1, A549, 65 h, read-out: EC50 H5N1 moi 2

Structure (SMILES)	CC50 (in vitro) [µM]	Inhibitor class across the tested viruses (influenza A viruses)	SI = CC50/EC50, H1N1 SOIV [1]	EC50 [2, 11] [µM]	EC50 [2, 12] [µM]	EC50 [3, 13] [µM]	EC50 [3, 14] [µM]	EC50 (A/Turkey/582/2006 (H5N1) [4]; [15]) [µM]	EC50 (A/Turkey/582/2006 (H5N1) [4]; [16]) [µM]	EC50 ([5]; read-out: EC50 H5N2 moi 0.2) [µM]	EC50 ([5]; read-out: EC50 H5N2 moi 2) [µM]	EC50 ([6]; read-out: EC50 H7N1 moi 0.2) [µM]	EC50 ([6]; read-out: EC50 H7N1 moi 2) [µM]	other results
O=C(O)CNC(=O)C(CS)Cc1ccccc1 (racemic) [DL-Thiorphan]	6280	–	–	–	–	–	–	–	–	–	–	–	–	–
Nc1ccccc1S(N)(=O)=O [2-Aminobenzenesulfonamide, 2-aminobenzenesulfonamide]	> 6900	inefficient	13	> 690	> 690	534	1820	> 690	> 690	> 690	> 690	> 690	> 690	Cytotoxicity at the highest tested dose (A549 cells): none of these molecules was cytotoxic at the highest tested dose
CCN[C@H]1CN(CCCOC)S(=O)(=O)c2sc(S(N)(=O)=O)cc21 [Brinzolamide, brinzolamide]	666	weak to moderate inhibitors	31	28.9	435	21.6	167	> 500	> 500	146	232	139	551	Inhibitor class / antiviral effect, H1N1 [7]: moderate inhibitor; Inhibitor class, H5N2 [8]: weak inhibitor; Inhibitor class, H7N1 [9]: weak inhibitor
Nc1nc2c(c(=O)[nH]1)N(C=O)C(CNc1ccc(C(=O)N[C@@H](CCC(=O)O)C(=O)O)cc1)CN2 (stereo partly drawn) [Calcium Folinate, calcium folinate]	> 2400	inefficient	–	> 800	> 800	> 2400	> 2400	> 800	> 800	> 800	> 800	> 800	> 800	Cytotoxicity at the highest tested dose (A549 cells): none of these molecules was cytotoxic at the highest tested dose
C[S+](C)[O-] [DMSO, dimethylsulfoxide]	–	–	–	–	–	–	–	–	–	–	–	–	–	EC50 ([7]; read-out: EC50 H1N1 moi 0.2): 174 µM; EC50 ([7]; read-out: EC50 H1N1 moi 2): > 1600 µM; EC50 ([1]; read-out: EC50 SOIV moi 0.2): 344 µM; EC50 ([1]; read-out: EC50 SOIV moi 2): 606 µM; EC50 (A/Turkey/582/2006 (H5N1) [10]; read-out: EC50 H5N1 moi 0.2): 1830 µM; EC50 (A/Turkey/582/2006 (H5N1) [10]; read-out: EC50 H5N1 moi 2): > 1600 µM; EC50 ([8]; read-out: EC50 H5N2 moi 0.2): 564 µM; EC50 ([8]; read-out: EC50 H5N2 moi 2): 734 µM; EC50 ([9]; read-out: EC50 H7N1 moi 0.2): 801 µM; EC50 ([9]; read-out: EC50 H7N1 moi 2): 1110 µM
Cc1nccc2c1[nH]c1cc(O)ccc12.Cl [Harmol, harmol hydrochloride]	–	–	14	–	–	–	–	–	–	–	–	–	–	CC50 (A549 cells): 95 µM; EC50 ([7]; read-out: EC50 H1N1 moi 0.2): 20.5 µM; EC50 ([7]; read-out: EC50 H1N1 moi 2): 60.4 µM; EC50 ([1]; read-out: EC50 SOIV moi 0.2): 6.76 µM; EC50 ([1]; read-out: EC50 SOIV moi 2): 53.7 µM; EC50 (A/Turkey/582/2006 (H5N1) [10]; read-out: EC50 H5N1 moi 0.2): 43.4 µM; EC50 (A/Turkey/582/2006 (H5N1) [10]; read-out: EC50 H5N1 moi 2): 77.5 µM; EC50 ([8]; read-out: EC50 H5N2 moi 0.2): 13.5 µM; EC50 ([8]; read-out: EC50 H5N2 moi 2): 4.06 µM; EC50 ([9]; read-out: EC50 H7N1 moi 0.2): 28 µM; EC50 ([9]; read-out: EC50 H7N1 moi 2): 49.4 µM
CO[C@@]1(NC(=O)C(C(=O)O)c2ccc(O)cc2)C(=O)N2C(C(=O)O)=C(CSc3nnnn3C)CO[C@@H]21 (stereo partly drawn) [Latamoxef, moxalactam]	593	–	–	–	–	–	–	–	–	–	–	–	–	–
O=C([O-])c1ccccc1-c1c2cc(Br)c(=O)cc-2oc2[c]([Hg+])c([O-])c(Br)cc12.[Na+].[Na+].[OH-] [Merbromin, merbromine]	–	–	–	–	–	–	–	–	–	–	–	–	–	EC50 (influenza A viruses; read-out: EC50 (all viruses tested)): ~50 µM; CC50 (A549 cells): 104 µM; SI = CC50/EC50, H1N1 [7]: 2.01; EC50 ([7]; read-out: EC50 H1N1 moi 0.2): 62 µM; EC50 ([7]; read-out: EC50 H1N1 moi 2): 29.6 µM; EC50 ([1]; read-out: EC50 SOIV moi 0.2): > 50 µM; EC50 ([1]; read-out: EC50 SOIV moi 2): 37.5 µM; EC50 (A/Turkey/582/2006 (H5N1) [10]; read-out: EC50 H5N1 moi 0.2): 46 µM; EC50 (A/Turkey/582/2006 (H5N1) [10]; read-out: EC50 H5N1 moi 2): 45 µM; SI = CC50/EC50, H5N2 [8]: 2.7; EC50 ([8]; read-out: EC50 H5N2 moi 0.2): 21.9 µM; EC50 ([8]; read-out: EC50 H5N2 moi 2): 36.5 µM; SI = CC50/EC50, H7N1 [9]: 2.4; EC50 ([9]; read-out: EC50 H7N1 moi 0.2): 46.7 µM; EC50 ([9]; read-out: EC50 H7N1 moi 2): 43.7 µM
Cc1cc(C(C)(C)CC(C)(C)C)ccc1OCCOCC[N+](C)(C)Cc1ccccc1 [Methylbenzethoniumchloride]	–	–	–	–	–	–	–	–	–	–	–	–	–	CC50 (A549 cells): 6.35 µM
COc1ccc(OC)c(C(O)CNC(=O)CN)c1 (stereo not drawn) [Midodrine, midodrine]	> 4250	weak to moderate inhibitors	40	29.8	1570	109	930	3900	> 4250	476	1670	> 4250	> 4250	Cytotoxicity at the highest tested dose (A549 cells): none of these molecules was cytotoxic at the highest tested dose; SI = CC50/EC50, H5N1 (A/Turkey/582/2006 (H5N1) [10]): 1.09
NC(=O)c1ncn([C@@H]2O[C@H](CO)[C@@H](O)[C@H]2O)n1 [Ribavirin, ribavirin]	29500	strong inhibitor	482	6.63	73.8	61.1	292	48.4	632	6.71	16.4	12.5	32.4	SI = CC50/EC50, H5N1 (A/Turkey/582/2006 (H5N1) [10]): 911; SI = CC50/EC50, H7N1 [9]: 1367; EC50 ([2]; H1N1, A549, read-out: EC50 H1N1 moi 0.2): 6 µM; EC50 ([3]; H1N1, A549, read-out: EC50 SOIV moi 0.2): 61 µM; EC50 ([3]; H1N1, A549, read-out: EC50 SOIV moi 2): 292 µM; EC50 (A/Turkey/582/2006 (H5N1) [4]; H5N1, A549, read-out: EC50 H5N1 moi 2): 632 µM
C1COC(NC(C2CC2)C2CC2)=N1 [Rilmenidine]	–	–	–	–	–	–	–	–	–	–	–	–	–	CC50 (A549 cells): 1130 µM; EC50 ([7]; read-out: EC50 H1N1 moi 0.2): 24.2 µM; EC50 ([7]; read-out: EC50 H1N1 moi 2): 506 µM; Inhibitor class / antiviral effect, H1N1 SOIV [1]: ineffective; EC50 ([1]; read-out: EC50 SOIV moi 0.2): 864 µM; EC50 ([1]; read-out: EC50 SOIV moi 2): 1070 µM; EC50 (A/Turkey/582/2006 (H5N1) [10]; read-out: EC50 H5N1 moi 0.2): 1470 µM; EC50 (A/Turkey/582/2006 (H5N1) [10]; read-out: EC50 H5N1 moi 2): 2040 µM; EC50 ([8]; read-out: EC50 H5N2 moi 0.2): 359 µM; EC50 ([8]; read-out: EC50 H5N2 moi 2): 514 µM; EC50 ([9]; read-out: EC50 H7N1 moi 0.2): 778 µM; EC50 ([9]; read-out: EC50 H7N1 moi 2): 1050 µM
COc1cnc(NS(=O)(=O)c2ccc(N)cc2)nc1 [Sulfameter]	4160	–	–	–	–	–	–	–	–	–	–	–	–	–
CCCCCCCCNC(C)C(O)c1ccc(SC(C)C)cc1 (stereo not drawn) [Sulodictil]	100	–	–	–	–	–	–	–	–	–	–	–	–	–
CO[C@H]1/C=C\C=C(/C)C(=O)NC2=CC(=O)C(NCCN(C)C)=C(C[C@@H](C)C[C@H](OC)[C@H](O)[C@@H](C)/C=C(\C)[C@@H]1OC(N)=O)C2=O [alvespimycin, Alvespimycin]	> 10	–	–	–	–	–	–	–	–	–	–	–	–	–
